Results on 35 molecules are retold here after paper PMC9115881, “Penicillin Derivatives Inhibit the SARS-CoV-2 Main Protease by Reaction with Its Nucleophilic Cysteine” (Journal of Medicinal Chemistry, 2022).

“Also recorded” adds a separate entry of the source. Read-outs that look alike come from different tables or passages of the source.

The target of test [1] is T1, SARS-CoV-2 M^pro (Severe acute respiratory syndrome coronavirus 2, UniProt P0DTD1). The test can be described thus: biochemical. Type of test: biochemical. Particulars: for M^pro inhibition, result in words: SPE-MS inhibition assay.
Test [2] has as its target T1, SARS-CoV-2 M^pro. The test can be described thus: Protein-observed M^pro assay (SPE-MS), covalent modification. In kind it is binding. The settings on record: M^pro 2.0 μM, inhibitor 11 or 33 μM, 45 min. The protocol:
Selected compounds were tested for reaction with M^pro using protein-observed MS to inform on their mechanism of inhibition (Figure 2). Initially, M^pro was incubated with a ∼6-fold excess of the penicillin sulfone ester for 45 min and then analyzed by MS. […] When the inhibitor concentration was increased to ∼17-fold to account for the possibility of modifying all 12 M^pro cysteine or other residues, only low levels of a second covalent M^pro modification by the inhibitors were observed (Figure 2A–C). No evidence for fragmentation of the inhibitors once bound to M^pro was accrued.
Solutions of the inhibitors (100% DMSO) were dry-dispensed across 384-well polypropylene assay plates (Greiner) (for 11 or 33 μM top concentrations) using an ECHO 550 acoustic dispenser (Labcyte). DMSO was used as a negative control. Each reaction was performed in technical duplicates. The enzyme mixture (50 μL/well), containing M^pro (2.0 μM) in buffer (20 mM HEPES, pH 7.5), was dispensed across the penicillin-containing 384-well assay plates with a multidrop dispenser (Thermo Fischer Scientific). The reaction mixture was incubated for 45 min at 20 °C under an ambient atmosphere prior to analysis by SPE-MS.
MS analyses were performed using a RapidFire RF 365 high-throughput sampling robot (Agilent) attached to an iFunnel Agilent 6550 accurate mass Q-TOF mass spectrometer using a C4 cartridge and the same parameters as described above, with the exception of the gas temperature that was reduced to 225 °C. Protein spectra were deconvoluted for the m/z range 850–1350 Da, with a resolution of 2 Da and with a 10–60 kDa cutoff using the MaxEnt1 function in Agilent MassHunter Version 7. The deconvoluted files were extracted as csv files, sorted using Enthought Canopy GUI, and normalized and plotted using GraphPad Prism 9.

[3] abbreviates: Table 2, M^pro […], 37mer substrate 2.0 μM, mean ± SD, n ≥ 2, read-out: IC50.
Setting [4] is: Table 3, M^pro […], 37mer substrate 2.0 μM, mean ± SD, n ≥ 2, read-out: IC50.
Setting [5] is: Table 1, M^pro […], 37mer substrate 2.0 μM, 15 min preincubation, mean ± SD, n ≥ 2, read-out: IC50.
[6] abbreviates: Table S2, M^pro 0.15 μM, 37mer substrate peptide 2.0 μM, mean ± SD, n ≥ 2, read-out: IC50 [μM] using SPE-MS (37mer peptide).
Setting [7] is: read-out: IC50 [μM] using SPE-MS (37mer peptide).

As for `CC1(C)[C@H](C(=O)OCc2ccccc2)N2C(=O)C[C@H]2S1(=O)=O` [Compound 34], in test [1] (Table 4, M^pro […], 37mer substrate 2.0 μM, mean ± SD, n ≥ 2, read-out: IC50), the IC50 is above 50 µM.
For `CC1(C)[C@H](C(=O)OCc2ccccc2F)N2C(=O)[C@@H](NC(=O)COc3ccccc3)[C@H]2S1(=O)=O` [Compound 20a], the IC50 in test [1] (setting [3]) turned out to be 5.8 ± 2 µM. Moreover, the “covalent modification of M^pro by protein-observed MS” value (from here on “covalent modification of M^pro”) in test [2] was “covalent reaction with Cys145”.
In the case of `CC1(C)[C@H](C(=O)OCc2ccccc2)N2C(=O)[C@@H](NC(=O)OCc3ccccc3)[C@H]2S1(=O)=O` [Compound 25a], the “M^pro inhibition, result in words” value in test [1] is given as “abolished M^pro inhibition”. In test [1] (setting [4]), the IC50 was above 50 µM. In addition, the “covalent modification of M^pro” value in test [2] is listed as “do not covalently react with Cys145; also recorded: does not modify M^pro covalently; also recorded: but not 25a”.
In the case of `O=c1[nH]sc2ccccc12` [BIT, benzoisothiazolinone, reference compound], the “covalent modification of M^pro” value in test [2] is “non-selectively undergoes covalent”.
Turning to `CC1(C)[C@H](C(=O)OCc2cc(C(F)(F)F)cc(C(F)(F)F)c2)N2C(=O)[C@@H](NC(=O)COc3ccccc3)[C@H]2S1(=O)=O` [Compound 20h], the “M^pro inhibition, result in words” value in test [1] is reported as “inhibited M^pro”. The IC50 in test [1] (setting [3]) came to 35.3 ± 2.2 µM.
With `COC(=O)[C@@H]1N2C(=O)[C@@H](NC(=O)COc3ccccc3)[C@H]2S(=O)(=O)C1(C)C` [Compound 20o], in test [1] (setting [3]), the IC50 was found to be 7.9 ± 1.4 µM.
For `CC1(C)S[C@@H]2[C@H](NC(=O)COc3ccccc3)C(=O)N2[C@H]1C(=O)OCc1ccccc1` [Compound 13], the concentration for half-maximal inhibition (IC50) in test [1] (setting [5]) is above 50 µM.
As to `CC1(C)[C@H](C(=O)OCc2ccccc2)N2C(=O)C(Br)(Br)[C@H]2S1(=O)=O` [Compound 28, 6,6-dibromopenicillanic acid sulfone benzyl ester], the half-inhibitory concentration (IC50) in test [1] (Table 4, M^pro 0.15 μM, 37mer substrate 2.0 μM, mean ± SD, n ≥ 2, read-out: IC50) was around 0.6 µM. Besides, the “covalent modification of M^pro” value in test [2] is “initial covalent M^pro binding is followed by rapid subsequent reaction to give new species”.
As to `CC1(C)S[C@@H]2[C@H](NC(=O)COc3ccccc3)C(=O)N2[C@H]1C(=O)OCc1cc(F)cc(F)c1` [Compound 19d], the concentration for half-maximal inhibition (IC50) in test [1] (setting [6]) was above 50 µM.
For the molecule `COc1ccc(COC(=O)[C@@H]2N3C(=O)[C@@H](NC(=O)COc4ccccc4)[C@H]3S(=O)(=O)C2(C)C)cc1` [Compound 20k], the “M^pro inhibition, result in words” value in test [1] was “do not, at least efficiently, inhibit M^pro”. For the same molecule, the IC50 in test [1] (setting [3]) stood at 31.1 ± 13.9 µM.
For the molecule `Cc1cc(COC(=O)[C@@H]2N3C(=O)[C@@H](NC(=O)COc4ccccc4)[C@H]3S(=O)(=O)C2(C)C)no1` [Compound 20n], the “M^pro inhibition, result in words” value in test [1] is on record as “inhibit M^pro, albeit with slightly reduced potency compared to 10”. Besides, the IC50 in test [1] (Table 2, M^pro 0.15 μM, 37mer substrate 2.0 μM, mean ± SD, n ≥ 2, read-out: IC50) was found to be 9 ± 1.3 µM.
As for `CC1(C)[C@H](C(=O)OCc2ccccc2)N2C(=O)[C@@H](NC(=O)CCc3ccccc3)[C@H]2S1(=O)=O` [Compound 25b], the IC50 in test [1] (setting [4]) was 45.7 ± 0.9 µM. For the same molecule, the “covalent modification of M^pro” value in test [2] was “do not covalently react with Cys145”.
For the molecule `CC1(C)S[C@@H]2[C@H](NC(=O)COc3ccccc3)C(=O)N2[C@H]1C(=O)OCc1ccc(F)cc1` [Compound 19c], the IC50 in test [1] (setting [7]) is above 50 µM.
For `CC1(C)[C@H](C(=O)OCc2ccc(F)cc2)N2C(=O)[C@@H](NC(=O)COc3ccccc3)[C@H]2S1(=O)=O` [Compound 20c], the IC50 in test [1] (setting [3]) came to 7.4 ± 2.3 µM. Moreover, the “covalent modification of M^pro” value in test [2] is reported as “covalent reaction with Cys145”.
`CC(Oc1ccccc1)C(=O)N[C@@H]1C(=O)N2[C@@H](C(=O)OCc3ccccc3)C(C)(C)S(=O)(=O)[C@H]12` (stereo partly drawn) [Compound 25i]: the “M^pro inhibition, result in words” value in test [1] is “substantially reduced inhibition”. Further, the IC50 in test [1] (setting [4]) is above 50 µM.
As for `CC1(C)[C@H](C(=O)OCc2ccc([N+](=O)[O-])cc2)N2C(=O)[C@@H](NC(=O)COc3ccccc3)[C@H]2S1(=O)=O` [Compound 20j, penicillin V sulfone para-nitrobenzyl ester], the “M^pro inhibition, result in words” value in test [1] is “do not, at least efficiently, inhibit M^pro”. Further, the IC50 in test [1] (setting [3]) is above 50 µM.
As to `CC1(C)[C@H](C(=O)OCC#N)N2C(=O)[C@@H](NC(=O)COc3ccccc3)[C@H]2S1(=O)=O` [Compound 20r], the IC50 in test [1] (setting [3]) was determined as 9.7 ± 3.3 µM.
With `CC1(C)[C@H](C(=O)OCc2cccc([N+](=O)[O-])c2)N2C(=O)[C@@H](NC(=O)COc3ccccc3)[C@H]2S1(=O)=O` [Compound 20i], in test [1], the “M^pro inhibition, result in words” value was “inhibited M^pro”. For the same molecule, the IC50 in test [1] (setting [3]) came to 13.3 ± 5.3 µM.
With `CC1(C)S[C@@H]2[C@H](NC(=O)COc3ccccc3)C(=O)N2[C@H]1C(=O)OCc1ccc(F)cc1F` [Compound 19e], the IC50 in test [1] (setting [6]) is above 50 µM.
For the molecule `CC1(C)[C@H](C(=O)OCc2ccc(C(F)(F)F)o2)N2C(=O)[C@@H](NC(=O)COc3ccccc3)[C@H]2S1(=O)=O` [Compound 20m], the “M^pro inhibition, result in words” value in test [1] is reported as “inhibit M^pro, albeit with slightly reduced potency compared to 10”. Moreover, the IC50 in test [1] (setting [3]) turned out to be 10.2 ± 2.2 µM.
On to `CC1(C)[C@H](C(=O)OCc2ccccc2)N2C(=O)[C@@H](NC(=O)COC3CCCCC3)[C@H]2S1(=O)=O` [Compound 25m], for which the “covalent modification of M^pro” value in test [2] was “covalent reaction with Cys145”.
With `CC1(C)S[C@@H]2[C@H](NC(=O)COc3ccccc3)C(=O)N2[C@H]1C(=O)OCc1c(F)cc(F)cc1F` [Compound 19g], in test [1] (setting [6]), the concentration for half-maximal inhibition (IC50) is above 50 µM.
For the molecule `CC1(C)[C@H](C(=O)OCc2ccc([N+](=O)[O-])cc2)N2C(=O)C(Br)(Br)[C@H]2S1(=O)=O` [Compound 31, 6,6-dibromopenicillanic acid sulfone para-nitrobenzyl ester], in test [2], the “covalent modification of M^pro” value is “initial covalent M^pro binding is followed by rapid subsequent reaction to give new species”.
With `COc1ccc(COC(=O)[C@@H]2N3C(=O)[C@@H](NC(=O)COc4ccccc4)[C@H]3SC2(C)C)cc1` [Compound 19k], the 50% inhibitory concentration (IC50) in test [1] (setting [6]) turned out to be 45.8 ± 11 µM.
Consider `CC(C)C[C@H](NC(=O)OCc1ccccc1)C(=O)N[C@@H]1C(=O)N2[C@@H](C(=O)OCc3ccccc3)C(C)(C)S(=O)(=O)[C@H]12` [Compound 25f], for which the IC50 in test [1] (setting [4]) was above 50 µM.
Turning to `CC1(C)[C@H](C(=O)OCc2cccc(F)c2)N2C(=O)[C@@H](NC(=O)COc3ccccc3)[C@H]2S1(=O)=O` [Compound 20b], the IC50 in test [1] (setting [3]) is 9.2 ± 3.7 µM.
Turning to `CC1(C)[C@H](C(=O)OCc2ccccc2)N2C(=O)[C@@H](NC(=O)COc3c(F)c(F)c(F)c(F)c3F)[C@H]2S1(=O)=O` [Compound 25h], the “M^pro inhibition, result in words” value in test [1] was “did not alter M^pro inhibition substantially”. The IC50 in test [1] (setting [4]) stood at 5.3 ± 3.3 µM.
As to `CC1(C)S[C@@H]2[C@H](NC(=O)COc3ccccc3)C(=O)N2[C@H]1C(=O)OCc1ccccc1F` [Compound 19a], in test [1] (setting [7]), the IC50 amounted to 47.7 ± 6.8 µM.
On to `CC(Oc1ccccc1)C(=O)N[C@@H]1C(=O)N2[C@@H](C(=O)OCc3ccc(F)cc3)C(C)(C)S(=O)(=O)[C@H]12` (stereo partly drawn) [Compound 25j], for which the “M^pro inhibition, result in words” value in test [1] is “substantially reduced inhibition”. For the same molecule, in test [1] (setting [4]), the IC50 was above 50 µM.
With `CC1(C)[C@H](C(=O)OCc2ccccc2)N2C(=O)[C@@H](NC(=O)CNC(=O)c3ccccc3)[C@H]2S1(=O)=O` [Compound 25d], the 50% inhibitory concentration (IC50) in test [1] (setting [4]) was above 50 µM.
On to `CC1(C)S[C@@H]2[C@H](NC(=O)COc3ccccc3)C(=O)N2[C@H]1C(=O)O` [Compound 12, penicillin V, reference compound], for which the IC50 in test [1] (setting [5]) is above 50 µM.
Turning to `CC1(C)[C@H](C(=O)OCc2ccccc2)N2C(=O)[C@@H](NC(=O)COc3ccccc3)C[C@H]2S1(=O)=O` [Compound 17], the “covalent modification of M^pro” value in test [2] is given as “appears to inhibit M^pro via a different mechanism”.
Regarding `CC1(C)[C@H](C(=O)OCc2cc(F)c(F)c(F)c2)N2C(=O)[C@@H](NC(=O)COc3ccccc3)[C@H]2S1(=O)=O` [Compound 20f], the IC50 in test [1] (setting [3]) was above 50 µM.
Take `CC1(C)[C@H](C(=O)OCc2ccccc2)N2C(=O)[C@@H](NC(=O)CNC(=O)OCc3ccccc3)[C@H]2S1(=O)=O` [Compound 25e]: the IC50 in test [1] (setting [4]) is above 50 µM.
For `CC1(C)[C@H](C(=O)OCc2ccc3ccccc3c2)N2C(=O)[C@@H](NC(=O)COc3ccccc3)[C@H]2S1(=O)=O` [Compound 20l], the “M^pro inhibition, result in words” value in test [1] is given as “do not, at least efficiently, inhibit M^pro”. In test [1] (setting [3]), the half-inhibitory concentration (IC50) was above 50 µM.
